From PMC10518255, “A first-in-class pan-lysyl oxidase inhibitor impairs stromal remodeling and enhances gemcitabine response and survival in pancreatic cancer” (Nature Cancer, 2023) come the findings set out here.

For one assay, the system named is KPC CCs. In words: Cancer cell invasion into CAF-remodeled 3D organotypic matrices. Format: cell-based, mouse. To be noted: for number of cancer cells invaded per FOV: single replicates. The protocol: Fig. 3 PXS-5505 inhibition of CAF remodeling in vitro. a, Quantitative PCR with reverse transcription (qRT–PCR) showing in vitro comparison of KPC CAF relative expression of lysyl oxidase family members compared to KPC CCs from the same model (n = 3 biologically independent samples). Comparisons were determined by 2^–∆∆Ct approach. b, Representative images of 3D organotypic matrix contraction assay at days 2, 6 and 12 in the absence (gray) or presence (pink) of PXS-5505 (30 µM). Scale bars, 5 mm. Comparison of measured area of matrices between control and PXS-5505 treatment groups over time (n = 3 technical samples examined over three biologically independent samples). Data are mean ± s.d. c, Concentration of immature divalent DHLNL and mature trivalent Pyr collagen crosslinks determined by LC–MS from control and PXS-5505-treated organotypic matrices at day 12 (n = 3 technical samples examined over two biologically independent samples). Data are mean ± s.d. […] Data are presented as mean ± s.d. […] Comparison of number of CCs invaded per field of view (FOV) as determined by H&E and PanCK staining (nine images taken from three technical samples from each of three biologically independent contracted matrices), normalized to control. Data are mean ± s.d. Scale bars, 100 μm. […] Source data
Following remodeling, 4 × 10^4 KPC CCs were seeded on top of the remodeled matrix in DMEM supplemented with 10% FBS and 1% penicillin–streptomycin and allowed to grow to confluence for 4 days, after which matrices were transferred to an air–liquid interface and CCs allowed to invade into the organotypic matrices for 12 days (Extended Data Fig. 4f). PXS-5505 (30 μM) or PXS-5120 (100 nM) was added to medium at 48-h intervals for the duration. At the end point, matrices were fixed in 10% formalin and processed for histological analysis by H&E and panCK staining. The invasive index was measured in three representative areas per matrix and the number of invaded cells per mm^2 was calculated. No statistical methods were used to predetermine sample sizes but our sample sizes are similar to those reported in previous publications[36],[39].
Extended Data Fig. 4 PXS-5505 inhibits collagen cross-linking by PDAC CAFs in vitro resulting in decreased cancer cell invasion. a. Schematic of organotypic matrix remodeling assay whereby CAFs are embedded into a 3D collagen matrix and growth media supplemented with or without PXS-5505 to inhibit lysyl oxidase family activity b. Chemical structures of lysyl oxidase family catalyzed hydroxyallysine or allysine residues and the subsequent divalent and trivalent bonds that are formed that can be quantified by mass spectrometry. c. Representative images of 3D organotypic matrix contraction by human pancreatic cancer CAFs at days 2, 6 and 12 in the absence (gray) and presence (pink) of PXS-5505 (30 µM). Scale bars = 5 mm. […] Data presented as mean values +/− SD. d. […] Data presented as mean values +/− SD. Relative fold expression of LOXL family members compared to LOX were determined by 2^–∆∆Ct approach. f. […] Comparison of measured area of matrices between control, PXS-5120 and PXS-5505 treatment groups (n = 3) over time. i. […] Representative images of invasion of KPC cancer cells into a contracted organotypic matrix as determined by H&E staining. […]

The target of a further assay is Recombinant MAO-B (Homo sapiens, UniProt P27338). In words: IC50 determination against other human amine oxidases. Format: biochemical. The text has this:
(§1) Data are presented as mean ± s.d. […] Data presented as mean ± s.d. […] Source data TEXT PRINTED IN THE PICTURE: (b) PXS-5505: Recombinant DAO IC50 (nM): >30,000; Recombinant SSAO/VAP1 IC50 (nM): >30,000; Recombinant MAO-A IC50 (nM): >30,000; Recombinant MAO-B IC50 (nM): >30,000 | (f) PXS-5505: Fibroblast LOX IC50 (nM): 4,930; Recombinant LOXL-1 IC50 (nM): 1,590; Recombinant LOXL-2 IC50 (nM): 570; Recombinant LOXL-3 IC50 (nM): 1,800; Recombinant LOXL-4 IC50 (nM): 190

A further assay addresses Recombinant MAO-A (Homo sapiens, UniProt P21397). Described as above. Format: biochemical.
Source text: as §1

Another assay has as its target T1, DAO (Homo sapiens, UniProt P19801).
T1 sequence (P19801 20-751): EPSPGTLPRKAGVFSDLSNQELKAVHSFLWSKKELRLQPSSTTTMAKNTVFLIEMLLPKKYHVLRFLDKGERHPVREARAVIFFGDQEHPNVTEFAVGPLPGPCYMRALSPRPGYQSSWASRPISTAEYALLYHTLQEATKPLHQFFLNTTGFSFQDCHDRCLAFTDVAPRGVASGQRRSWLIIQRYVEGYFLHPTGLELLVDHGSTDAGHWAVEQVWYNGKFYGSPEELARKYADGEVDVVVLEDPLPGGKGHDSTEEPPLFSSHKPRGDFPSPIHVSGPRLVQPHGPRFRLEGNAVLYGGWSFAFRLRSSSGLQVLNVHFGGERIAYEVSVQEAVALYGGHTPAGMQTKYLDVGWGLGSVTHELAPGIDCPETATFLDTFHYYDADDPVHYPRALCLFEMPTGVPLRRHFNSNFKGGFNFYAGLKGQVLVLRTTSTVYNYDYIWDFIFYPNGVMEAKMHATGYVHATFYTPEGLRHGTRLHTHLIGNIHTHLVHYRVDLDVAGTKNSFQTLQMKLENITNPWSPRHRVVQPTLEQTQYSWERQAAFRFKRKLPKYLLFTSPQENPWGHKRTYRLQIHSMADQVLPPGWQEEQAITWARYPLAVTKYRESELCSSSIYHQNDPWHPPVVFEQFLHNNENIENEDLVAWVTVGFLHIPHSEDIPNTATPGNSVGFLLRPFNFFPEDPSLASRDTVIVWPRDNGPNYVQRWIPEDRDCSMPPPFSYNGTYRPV
Described as above. Format: biochemical.
Source text: as §1

A further assay deals with Recombinant SSAO/VAP1 (Homo sapiens, UniProt Q16853). The assay is described as above. The format is biochemical.
Sequence of Recombinant SSAO/VAP1 (Q16853 whole entry): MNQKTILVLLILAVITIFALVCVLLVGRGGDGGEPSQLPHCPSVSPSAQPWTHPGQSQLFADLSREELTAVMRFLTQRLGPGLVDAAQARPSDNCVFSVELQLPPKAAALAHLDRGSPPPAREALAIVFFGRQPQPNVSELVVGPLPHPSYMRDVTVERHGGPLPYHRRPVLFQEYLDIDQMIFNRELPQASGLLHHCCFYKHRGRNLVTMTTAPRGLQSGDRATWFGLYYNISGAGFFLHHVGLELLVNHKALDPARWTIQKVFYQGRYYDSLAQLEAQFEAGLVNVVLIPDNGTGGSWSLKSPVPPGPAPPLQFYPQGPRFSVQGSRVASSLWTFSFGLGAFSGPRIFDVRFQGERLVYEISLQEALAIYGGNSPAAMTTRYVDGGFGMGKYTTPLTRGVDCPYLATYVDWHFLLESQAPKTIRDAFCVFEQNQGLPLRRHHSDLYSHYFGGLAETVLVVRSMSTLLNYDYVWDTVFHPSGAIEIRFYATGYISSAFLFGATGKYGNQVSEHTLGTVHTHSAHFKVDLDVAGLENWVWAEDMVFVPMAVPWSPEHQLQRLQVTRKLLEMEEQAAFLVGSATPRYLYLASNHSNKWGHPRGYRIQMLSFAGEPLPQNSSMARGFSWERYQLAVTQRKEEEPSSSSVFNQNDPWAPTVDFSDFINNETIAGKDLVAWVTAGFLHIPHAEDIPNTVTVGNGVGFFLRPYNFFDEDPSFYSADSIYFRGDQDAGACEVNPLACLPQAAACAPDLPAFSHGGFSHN
Source text: as §1

As a reminder, the pIC50 is −log10 of the IC50, conventionally taken in molar units.

The structures appear in SMILES notation. pIC50: −log10 of the molar value. Values joined by “and” are separate entries in the source; they are usually repeats but may differ in a detail not shown here. Equal values may be shown once.

Sequence of Recombinant MAO-B (P27338 whole entry): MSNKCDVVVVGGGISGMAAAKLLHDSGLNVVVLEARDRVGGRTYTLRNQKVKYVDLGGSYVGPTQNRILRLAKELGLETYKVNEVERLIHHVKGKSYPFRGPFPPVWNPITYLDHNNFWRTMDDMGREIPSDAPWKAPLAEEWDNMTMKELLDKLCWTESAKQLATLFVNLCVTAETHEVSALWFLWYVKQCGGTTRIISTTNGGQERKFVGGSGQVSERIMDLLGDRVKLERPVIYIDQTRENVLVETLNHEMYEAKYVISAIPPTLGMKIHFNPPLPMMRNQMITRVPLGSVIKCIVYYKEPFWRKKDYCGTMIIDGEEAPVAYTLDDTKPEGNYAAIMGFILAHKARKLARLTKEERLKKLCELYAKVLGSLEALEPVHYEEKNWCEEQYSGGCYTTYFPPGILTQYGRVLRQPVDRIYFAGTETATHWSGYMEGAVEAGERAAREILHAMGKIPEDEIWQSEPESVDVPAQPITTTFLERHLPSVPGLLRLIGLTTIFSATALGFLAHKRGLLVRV
Sequence of Recombinant MAO-A (P21397 whole entry): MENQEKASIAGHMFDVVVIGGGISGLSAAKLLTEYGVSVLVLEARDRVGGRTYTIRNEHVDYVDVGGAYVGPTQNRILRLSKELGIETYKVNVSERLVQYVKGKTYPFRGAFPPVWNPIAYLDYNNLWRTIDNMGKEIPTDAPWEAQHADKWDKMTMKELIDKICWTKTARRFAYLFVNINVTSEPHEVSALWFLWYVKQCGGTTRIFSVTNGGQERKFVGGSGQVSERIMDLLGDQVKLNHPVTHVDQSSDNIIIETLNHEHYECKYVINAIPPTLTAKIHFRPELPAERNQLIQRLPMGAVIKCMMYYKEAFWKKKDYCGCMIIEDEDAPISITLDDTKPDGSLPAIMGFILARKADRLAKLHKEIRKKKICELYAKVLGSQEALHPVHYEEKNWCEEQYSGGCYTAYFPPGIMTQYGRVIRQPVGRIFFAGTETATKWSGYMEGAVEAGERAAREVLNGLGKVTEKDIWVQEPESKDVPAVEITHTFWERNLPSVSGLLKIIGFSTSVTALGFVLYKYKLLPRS

For `Cl.Cl.NC/C=C(\F)CS(=O)(=O)c1cccc2cccnc12.O` [PXS-5505, (Z)-3-fluoro-4-(quinolin-8-ylsulfonyl)but-2-en-1-amine dihydrochloride monohydrate], the depth of invasion entry with KPC CCs (PXS-5505 30 µM) is “no significant difference in depth of invasion”. Moreover, the “invasion into the organotypic matrices by CCs” value in the assay with KPC CCs (PXS-5505 30 µM) is given as “decrease in invasion”. Further, the “number of cancer cells invaded per FOV” value in the assay on KPC CCs (determined by H&E) is 0.4375 and 0.5681 and 0.5386 and 0.8338 and 0.9078 and 0.6013 and 0.6222 and 0.3197 and 1.014; in the assay on KPC CCs (determined by PanCK), 0.6309 and 0.4054 and 0.3571 and 0.6771 and 0.6115 and 1.118 and 0.7087 and 0.8827 and 0.7763. Also, the pIC50 at Recombinant MAO-B, at Recombinant MAO-A, at DAO and at Recombinant SSAO/VAP1 was below 4.52 throughout.
